Measurements: US10479795B2 (Incyte Corporation, priority 2016, dated 2019)
Counter-ions that a name gives are not always drawn. Like-named read-outs stand apart in the source and are kept apart here.

Columns and labels:
[1] = test system: Phosphorylated Ribosomal Protein S6 (RPS6); assay: THP-1 RPS6 ELISA Assay; format: cell-based, Human; details: THP-1 cells, read-out: PI3Kγ_THP1_RPS6_ELISA IC50
Procedure, shortened: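 IC50 values come from a curve of percent inhibition against log compound concentration, using phospho-RPS6 ELISA (450 nm) on THP-1 lysates. Cells were serum-starved overnight, exposed to compound for 2 h at 37 °C, then challenged 15 min with 10 nM MCP-1.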

[2] = biological target: PI3Kγ (p110γ) Recombinant Human Protein (Homo sapiens (Human), UniProt P48736); assay: PI3K-γ Scintillation Proximity Assay; format: biochemical; details: read-out: PI3Kγ IC50
Chain of PI3Kγ (p110γ) Recombinant Human Protein (P48736 whole entry): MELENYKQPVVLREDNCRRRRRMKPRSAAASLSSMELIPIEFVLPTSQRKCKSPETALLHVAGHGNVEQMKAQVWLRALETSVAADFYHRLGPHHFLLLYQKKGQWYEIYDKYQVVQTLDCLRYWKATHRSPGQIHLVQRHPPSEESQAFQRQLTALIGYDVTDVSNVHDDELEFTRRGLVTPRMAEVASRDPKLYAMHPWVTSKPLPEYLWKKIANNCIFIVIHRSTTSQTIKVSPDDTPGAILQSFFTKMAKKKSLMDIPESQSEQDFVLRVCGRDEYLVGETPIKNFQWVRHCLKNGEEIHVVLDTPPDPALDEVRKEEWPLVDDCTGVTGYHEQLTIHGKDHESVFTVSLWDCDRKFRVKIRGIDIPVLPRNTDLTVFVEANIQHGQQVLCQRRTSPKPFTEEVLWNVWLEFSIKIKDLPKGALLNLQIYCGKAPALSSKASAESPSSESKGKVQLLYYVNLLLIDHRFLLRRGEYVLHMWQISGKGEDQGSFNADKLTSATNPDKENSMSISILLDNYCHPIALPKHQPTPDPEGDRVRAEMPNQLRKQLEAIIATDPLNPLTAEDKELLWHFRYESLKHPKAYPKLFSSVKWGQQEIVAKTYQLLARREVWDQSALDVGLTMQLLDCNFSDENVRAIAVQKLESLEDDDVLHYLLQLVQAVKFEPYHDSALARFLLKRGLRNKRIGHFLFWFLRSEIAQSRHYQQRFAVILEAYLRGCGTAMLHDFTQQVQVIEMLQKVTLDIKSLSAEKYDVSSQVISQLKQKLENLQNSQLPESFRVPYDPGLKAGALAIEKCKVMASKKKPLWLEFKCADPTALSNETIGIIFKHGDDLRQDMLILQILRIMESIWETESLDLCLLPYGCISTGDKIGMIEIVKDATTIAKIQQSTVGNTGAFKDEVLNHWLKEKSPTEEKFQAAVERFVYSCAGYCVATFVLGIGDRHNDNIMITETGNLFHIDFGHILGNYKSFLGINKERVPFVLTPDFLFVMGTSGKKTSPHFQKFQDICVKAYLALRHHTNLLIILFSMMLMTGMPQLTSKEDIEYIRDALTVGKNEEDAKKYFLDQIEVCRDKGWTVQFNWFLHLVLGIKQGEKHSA
Procedure, shortened: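 Radiometric SPA readout: […] bound to WGA beads after overnight shaking, IC50 derived from % activity of DMSO control. Reaction used human p110γ, 2 μM ATP, 20 μM PIP2, pH 6.7 MOPS buffer with MgCl2, DTT, CHAPS, 2% DMSO, room temperature.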

[3] = biological target: PI3Kδ (p110δ/p85α) Recombinant Human Protein (Homo sapiens (Human), UniProt O00329); assay: PI3Kδ Scintillation Proximity Assay; format: biochemical
Chain of PI3Kδ (p110δ/p85α) Recombinant Human Protein (O00329 whole entry): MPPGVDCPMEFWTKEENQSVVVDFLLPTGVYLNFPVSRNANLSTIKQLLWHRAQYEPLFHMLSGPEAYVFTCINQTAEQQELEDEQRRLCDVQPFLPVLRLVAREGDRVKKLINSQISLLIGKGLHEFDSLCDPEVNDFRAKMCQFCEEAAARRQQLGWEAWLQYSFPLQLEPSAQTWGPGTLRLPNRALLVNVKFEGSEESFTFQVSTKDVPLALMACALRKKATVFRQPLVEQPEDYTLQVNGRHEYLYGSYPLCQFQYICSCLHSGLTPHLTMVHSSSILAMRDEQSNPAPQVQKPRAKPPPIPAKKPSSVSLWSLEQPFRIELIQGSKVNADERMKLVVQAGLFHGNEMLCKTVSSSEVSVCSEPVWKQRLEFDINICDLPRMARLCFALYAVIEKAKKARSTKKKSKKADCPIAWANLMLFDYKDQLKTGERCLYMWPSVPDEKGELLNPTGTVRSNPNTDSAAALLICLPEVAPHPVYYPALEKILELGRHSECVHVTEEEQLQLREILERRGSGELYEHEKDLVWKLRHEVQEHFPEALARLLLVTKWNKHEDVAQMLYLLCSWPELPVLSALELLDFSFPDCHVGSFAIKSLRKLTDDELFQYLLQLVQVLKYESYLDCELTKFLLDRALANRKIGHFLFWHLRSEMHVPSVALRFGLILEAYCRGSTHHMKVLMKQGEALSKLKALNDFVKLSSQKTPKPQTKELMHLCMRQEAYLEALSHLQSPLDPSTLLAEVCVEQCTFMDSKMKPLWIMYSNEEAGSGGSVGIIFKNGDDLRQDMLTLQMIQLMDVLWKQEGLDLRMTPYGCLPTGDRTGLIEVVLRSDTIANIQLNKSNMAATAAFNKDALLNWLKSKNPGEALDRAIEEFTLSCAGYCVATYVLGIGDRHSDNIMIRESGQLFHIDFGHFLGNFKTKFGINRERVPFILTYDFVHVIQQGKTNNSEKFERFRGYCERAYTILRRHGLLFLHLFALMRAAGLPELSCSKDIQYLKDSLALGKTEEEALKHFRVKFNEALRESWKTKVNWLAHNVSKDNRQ
Chain of PI3Kδ (p110δ/p85α) Recombinant Human Protein (P27986 whole entry partner): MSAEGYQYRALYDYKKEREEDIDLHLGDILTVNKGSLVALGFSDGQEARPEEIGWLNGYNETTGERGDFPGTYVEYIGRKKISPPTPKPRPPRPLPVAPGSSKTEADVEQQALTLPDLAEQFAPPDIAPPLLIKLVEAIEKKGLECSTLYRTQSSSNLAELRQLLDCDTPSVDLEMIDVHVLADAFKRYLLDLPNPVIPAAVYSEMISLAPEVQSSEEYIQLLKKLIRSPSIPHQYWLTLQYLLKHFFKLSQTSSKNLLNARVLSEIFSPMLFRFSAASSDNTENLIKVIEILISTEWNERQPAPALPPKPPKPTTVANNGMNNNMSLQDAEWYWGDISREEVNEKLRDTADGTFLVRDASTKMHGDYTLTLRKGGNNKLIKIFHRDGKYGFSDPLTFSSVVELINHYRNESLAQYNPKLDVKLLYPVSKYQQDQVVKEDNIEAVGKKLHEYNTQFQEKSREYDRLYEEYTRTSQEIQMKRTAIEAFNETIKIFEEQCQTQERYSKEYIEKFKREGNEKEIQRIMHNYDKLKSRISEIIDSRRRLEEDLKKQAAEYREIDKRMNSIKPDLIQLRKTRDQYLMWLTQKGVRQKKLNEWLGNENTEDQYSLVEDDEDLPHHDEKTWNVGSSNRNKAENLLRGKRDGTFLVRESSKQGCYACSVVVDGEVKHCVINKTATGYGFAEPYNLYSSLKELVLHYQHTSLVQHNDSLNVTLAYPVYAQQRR
Procedure, shortened: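 Assay conditions: 2 μM ATP (radiolabelled), 20 μM PIP2, 3.4 nM PI3Kδ, 20 mM MOPS pH 6.7 with 10 mM MgCl2, 5 mM DTT, 0.03% CHAPS, 2 h at room temperature. Signal from bead-captured 33P product; IC50 versus solvent control.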

Structure (SMILES) | IC50 ([1]; Homo sapiens) | IC50 [2] | IC50 [3] | IC50 [1]
Cc1ccc(S(=O)(=O)NCC2CCS(=O)(=O)C2)cc1-c1cnc2c(N)ncnn12 (stereo not drawn) [Example 135, 3-(4-aminoimidazo[2,1-f][1,2,4]triazin-7-yl)-N-((1,1-dioxidotetrahydrothiophen-3-yl)methyl)-4-methylbenzenesulfonamide] | > 1000 nM | < 100 nM | 100 to 500 nM | –
Cc1ccc(S(=O)(=O)NCC2CCN(C(=O)C3CC3)CC2)cc1-c1cnc2c(N)nccn12 [Example 136, 3-(8-aminoimidazo[1,2-a]pyrazin-3-yl)-N-((1-(cyclopropanecarbonyl)piperidin-4-yl)methyl)-4-methylbenzenesulfonamide] | > 1000 nM | 100 to 500 nM | > 2000 nM | –
Cc1ccc(S(=O)(=O)NC2CCCCC2O)cc1-c1cnc2c(N)ncnn12 (stereo not drawn) [Example 137, 3-(4-aminoimidazo[2,1-f][1,2,4]triazin-7-yl)-N-(2-hydroxycyclohexyl)-4-methylbenzenesulfonamide] | > 1000 nM | < 100 nM | 500 to 2000 nM | –
Cc1ccc(S(=O)(=O)NCCN2CCCC2=O)cc1-c1cnc2c(N)ncnn12 [Example 138, 3-(4-aminoimidazo[2,1-f][1,2,4]triazin-7-yl)-4-methyl-N-(2-(2-oxopyrrolidin-1-yl)ethyl)benzenesulfonamide] | > 1000 nM | < 100 nM | 500 to 2000 nM | –
Cc1ccc(S(N)(=O)=O)cc1-c1cnc2c(N)ncnn12 [Example 139, 3-(4-aminoimidazo[2,1-f][1,2,4]triazin-7-yl)-4-methylbenzenesulfonamide] | > 1000 nM | < 100 nM | 500 to 2000 nM | –
Cc1ccc(S(=O)(=O)N[C@H]2C[C@](O)(C(F)(F)F)C2)cc1-c1cnc2c(N)ncnn12 [Example 140, 3-(4-aminoimidazo[2,1-f][1,2,4]triazin-7-yl)-N-((1S,3S)-3-hydroxy-3-(trifluoromethyl)cyclobutyl)-4-methylbenzenesulfonamide] | – | < 100 nM | 500 to 2000 nM | 100 to 500 nM
Cc1ccc(S(=O)(=O)N2CC3(C2)CC(O)(C(F)(F)F)C3)cc1-c1cnc2c(N)ncnn12 [Example 141, 2-((3-(4-aminoimidazo[2,1-f][1,2,4]triazin-7-yl)-4-methylphenyl)sulfonyl)-6-(trifluoromethyl)-2-azaspiro[3.3]heptan-6-ol] | 100 to 500 nM | < 100 nM | 100 to 500 nM | –
Cc1ccc(S(=O)(=O)N2CCC3(CCOCC3)C2)cc1-c1cnc2c(N)ncnn12 [Example 142, 7-(5-((8-oxa-2-azaspiro[4.5]decan-2-yl)sulfonyl)-2-methylphenyl)imidazo[2,1-f][1,2,4]triazin-4-amine] | 100 to 500 nM | < 100 nM | 500 to 2000 nM | –
Cc1ccc(S(=O)(=O)N2CC3(COC3)C2)cc1-c1cnc2c(N)ncnn12 [Example 143, 7-(5-((2-oxa-6-azaspiro[3.3]heptan-6-yl)sulfonyl)-2-methylphenyl)imidazo[2,1-f][1,2,4]triazin-4-amine] | > 1000 nM | < 100 nM | 100 to 500 nM | –
Cc1ccc(S(=O)(=O)N2CC(O)(C3CC3)C2)cc1-c1cnc2c(N)ncnn12 [Example 144, 1-((3-(4-aminoimidazo[2,1-f][1,2,4]triazin-7-yl)-4-methylphenyl)sulfonyl)-3-cyclopropylazetidin-3-ol, TFA] | – | < 100 nM | 100 to 500 nM | 500 to 1000 nM
Cc1ccc(S(=O)(=O)N2CC3(CC(O)C3)C2)cc1-c1cnc2c(N)ncnn12 [Example 145, 2-((3-(4-aminoimidazo[2,1-f][1,2,4]triazin-7-yl)-4-methylphenyl)sulfonyl)-2-azaspiro[3.3]heptan-6-ol, TFA] | – | < 100 nM | 100 to 500 nM | 100 to 500 nM
Cc1ccc(S(=O)(=O)N2C(C)COCC2C)cc1-c1cnc2c(N)ncnn12 (stereo not drawn) [Example 155, 7-(5-((3,5-dimethylmorpholino)sulfonyl)-2-methylphenyl)imidazo[2,1-f][1,2,4]triazin-4-amine] | 100 to 500 nM | < 100 nM | 100 to 500 nM | –
Cc1ccc(S(=O)(=O)N2CCOCC2(C)C)cc1-c1cnc2c(N)ncnn12 [Example 156, 7-(5-((3,3-dimethylmorpholino)sulfonyl)-2-methylphenyl)imidazo[2,1-f][1,2,4]triazin-4-amine] | 500 to 1000 nM | < 100 nM | 500 to 2000 nM | –
Cc1ccc(S(=O)(=O)N2C(C)CCCC2CO)cc1-c1cnc2c(N)ncnn12 (stereo not drawn) [Example 157, (1-((3-(4-aminoimidazo[2,1-f][1,2,4]triazin-7-yl)-4-methylphenyl)sulfonyl)-6-methylpiperidin-2-yl)methanol] | 500 to 1000 nM | < 100 nM | 500 to 2000 nM | –
Cc1ccc(S(=O)(=O)N(CCC#N)C2CCCC2)cc1-c1cnc2c(N)ncnn12 [Example 165, 3-(4-aminoimidazo[2,1-f][1,2,4]triazin-7-yl)-N-(2-cyanoethyl)-N-cyclopentyl-4-methylbenzenesulfonamide] | 500 to 1000 nM | < 100 nM | 100 to 500 nM | –
Cc1ccc(S(=O)(=O)N2CCNC[C@@H]2CO)cc1-c1cnc2c(N)ncnn12 [Example 166, (R)-(1-((3-(4-aminoimidazo[2,1-f][1,2,4]triazin-7-yl)-4-methylphenyl)sulfonyl)piperazin-2-yl)methanol] | 100 to 500 nM | < 100 nM | 100 to 500 nM | –
Cc1ccc(S(=O)(=O)N(CCC#N)CCCO)cc1-c1cnc2c(N)ncnn12 [Example 175, 3-(4-aminoimidazo[2,1-f][1,2,4]triazin-7-yl)-N-(2-cyanoethyl)-N-(3-hydroxypropyl)-4-methylbenzenesulfonamide] | 100 to 500 nM | < 100 nM | 100 to 500 nM | –
Cc1ccc(S(=O)(=O)NC23CCC(CC2)C3)cc1-c1cnc2c(N)ncnn12 [Example 180, 3-(4-aminoimidazo[1,2-f][1,2,4]triazin-7-yl)-N-(bicyclo[2.2.1]heptan-1-yl)-4-methylbenzenesulfonamide trifluoroacetate salt] | – | < 100 nM | 100 to 500 nM | 100 to 500 nM
Cc1ccc(S(=O)(=O)NC23CCC(CC2)CC3)cc1-c1cnc2c(N)ncnn12 [Example 181, 3-(4-aminoimidazo[1,2-f][1,2,4]triazin-7-yl)-N-(bicyclo[2.2.2]octan-1-yl)-4-methylbenzenesulfonamide trifluoroacetate salt] | – | < 100 nM | < 100 nM | 100 to 500 nM
Cc1ccc(S(=O)(=O)NC23CCN(CC2)CC3)cc1-c1cnc2c(N)ncnn12 [Example 182, 3-(4-aminoimidazo[1,2-f][1,2,4]triazin-7-yl)-4-methyl-N-(quinuclidin-4-yl)benzenesulfonamide trifluoroacetate salt] | – | < 100 nM | 500 to 2000 nM | 500 to 1000 nM
Cc1ccc(S(=O)(=O)N[C@H]2CC[C@H](CC#N)OC2)cc1-c1cnc2c(N)ncnn12 [Example 183, 3-(4-aminoimidazo[2,1-f][1,2,4]triazin-7-yl)-N-((3S,6R)-6-(cyanomethyl)tetrahydro-2H-pyran-3-yl)-4-methylbenzenesulfonamide] | < 100 nM | < 100 nM | 100 to 500 nM | –
Cc1ccc(S(=O)(=O)N[C@H]2CC[C@H](CC#N)CC2)cc1-c1cnc2c(N)ncnn12 [Example 184, 3-(4-aminoimidazo[2,1-f][1,2,4]triazin-7-yl)-N-(trans-4-(cyanomethyl)cyclohexyl)-4-methylbenzenesulfonamide trifluoroacetate] | < 100 nM | < 100 nM | < 100 nM | –
Cc1ccc(S(=O)(=O)NC23CCC(O)(CC2)CC3)cc1-c1cnc2c(N)ncnn12 [Example 185, 3-(4-aminoimidazo[2,1-f][1,2,4]triazin-7-yl)-N-(4-hydroxybicyclo[2.2.2]octan-1-yl)-4-methylbenzenesulfonamide] | 100 to 500 nM | < 100 nM | 100 to 500 nM | –
Cc1ccc(S(=O)(=O)NC23CCC(CO)(CC2)CC3)cc1-c1cnc2c(N)ncnn12 [Example 186, 3-(4-aminoimidazo[2,1-f][1,2,4]triazin-7-yl)-N-(4-(hydroxymethyl)bicyclo[2.2.2]octan-1-yl)-4-methylbenzenesulfonamide] | 100 to 500 nM | < 100 nM | 100 to 500 nM | –
Cc1ccc(S(=O)(=O)NC23CCC(C#N)(CC2)CC3)cc1-c1cnc2c(N)ncnn12 [Example 187, 3-(4-aminoimidazo[2,1-f][1,2,4]triazin-7-yl)-N-(4-cyanobicyclo[2.2.2]octan-1-yl)-4-methylbenzenesulfonamide] | 100 to 500 nM | < 100 nM | 100 to 500 nM | –
Cc1ccc(S(=O)(=O)NC23CCC(F)(CC2)CC3)cc1-c1cnc2c(N)ncnn12 [Example 188, 3-(4-aminoimidazo[2,1-f][1,2,4]triazin-7-yl)-N-(4-fluorobicyclo[2.2.2]octan-1-yl)-4-methylbenzenesulfonamide] | 100 to 500 nM | < 100 nM | < 100 nM | –
Cc1ccc(S(=O)(=O)NC2(C#N)CC2)cc1-c1cnc2c(N)ncnn12 [Example 189, 3-(4-aminoimidazo[2,1-f][1,2,4]triazin-7-yl)-N-(1-cyanocyclopropyl)-4-methylbenzenesulfonamide] | 500 to 1000 nM | < 100 nM | 500 to 2000 nM | –
